In the NIST ThermoML archive (doi:10.1021/acs.jced.8b00780) one finds Normal melting temperature data, which are given here for one molecule.

The conditions of this series: Crystal; DTA.

Numbers after ± are expanded uncertainties.

For the molecule `C=C1C[C@@]23CC[C@H]4[C@@](C)(CCC[C@@]4(C)C(=O)O[C@@H]4O[C@H](CO)[C@@H](O)[C@H](O)[C@H]4O)[C@@H]2CC[C@]1(O[C@@H]1O[C@H](CO)[C@@H](O)[C@H](O[C@@H]2O[C@H](CO)[C@@H](O)[C@H](O)[C@H]2O)[C@H]1O[C@@H]1O[C@H](CO)[C@@H](O)[C@H](O)[C@H]1O)C3` [rebaudioside A], the Normal melting temperature came out at 231.98 ± 1.1 °C.
